Measured values from US12655160B2, “KRAS G12D inhibitors” (Mirati Therapeutics, Inc., priority 2020, dated 2026).

Molecular target: KRas G12D (Homo sapiens, UniProt P01116, G12D)
Assay: KRas G12D Binding Assay (TR-FRET displacement of labeled tracer)
Parameters: corresponding to amino acids 1:169, produced at Array BioPharma Inc; biotin (biotinylated)
Conditions: TR-FRET displacement of Cy5 labelled tracer, Biotinylated GDP-loaded KRAS G12D (amino acids 1:169), 60 minute incubation at 22° C.
Method: This Example illustrates that exemplary compounds of the present invention bind to KRas G12D and are capable of displacing a labeled tracer ligand occupying the KRas G12D binding site. The ability of a compound to bind to KRAS G12D was measured using a TR-FRET displacement assay. Biotinylated GDP-loaded recombinant human KRAS G12D (corresponding to amino acids 1:169, produced at Array BioPharma Inc.) was incubated with a custom-made Cy5 labelled tracer, europium labelled streptavidin and compound (2% DMSO final) in buffer (50 mM HEPES [pH 7.5], 5 mM MgCl2, 0.005% Tween-20 & 1 mM DTT). After a 60 minute incubation at 22° C., the reaction was measured using a PerkinElmer EnVision multimode plate reader via TR-FRET dual wavelength detection, and the percent of control (POC) calculated using a ratiometric emission factor. […] The POC values were fit to a 4-parameter logistic curve and the IC50 value was determined as the concentration where the curve crosses 50 POC.

Chain of KRas G12D (P01116 1-169 isoform P01116-2 G12D): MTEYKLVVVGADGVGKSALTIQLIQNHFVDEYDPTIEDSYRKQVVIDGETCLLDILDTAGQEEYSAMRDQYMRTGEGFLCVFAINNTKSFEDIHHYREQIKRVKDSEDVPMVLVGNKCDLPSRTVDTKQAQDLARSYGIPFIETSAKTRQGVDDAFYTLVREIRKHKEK

Row | IC50 [nM] | Compound
1 | 954 | C=C(C)c1cccc2cccc(-c3ncc4c(NCC5(N(C)C)CCC5)nc(OCC56CCCN5C[C@H](F)C6)nc4c3F)c12 (mixture of isomers) [Example 24, N-((1-(dimethylamino)cyclobutyl)methyl)-8-fluoro-2-(((2S,7aR)-2-fluorotetrahydro-1H-pyrrolizin-7a(5H)-yl)methoxy)-7-(8-(prop-1-en-2-yl)naphthalen-1-yl)pyrido[4,3-d]pyrimidin-4-amine]
2 | 1640 | CC(C)c1cccc2cccc(-c3ncc4c(NCC5(N(C)C)CCC5)nc(OCC56CCCN5C[C@H](F)C6)nc4c3F)c12 (mixture of isomers) [Example 25, N-((1-(dimethylamino)cyclobutyl)methyl)-8-fluoro-2-(((2S,7aR)-2-fluorotetrahydro-1H-pyrrolizin-7a(5H)-yl)methoxy)-7-(8-isopropylnaphthalen-1-yl)pyrido[4,3-d]pyrimidin-4-amine]
3 | 344 | CN(C)C1(CNc2nc(OCC34CCCN3C[C@H](F)C4)nc3c(F)c(-c4cccc5cccc(C6CC6)c45)ncc23)CCC1 (mixture of isomers) [Example 26, 7-(8-cyclopropylnaphthalen-1-yl)-N-((1-(dimethylamino)cyclobutyl)methyl)-8-fluoro-2-(((2S,7aR)-2-fluorotetrahydro-1H-pyrrolizin-7a(5H)-yl)methoxy)pyrido[4,3-d]pyrimidin-4-amine]
4 | 521 | CN(C)CCNc1nc(OC[C@@]23CCCN2C[C@H](F)C3)nc2c(F)c(-c3cc(O)cc4ccccc34)ncc12 (racemic) [Example 39, 4-(4-((2-(dimethylamino)ethyl)amino)-8-fluoro-2-(((2S,7aR)-2-fluorotetrahydro-1H-pyrrolizin-7a(5H)-yl)methoxy)pyrido[4,3-d]pyrimidin-7-yl)naphthalen-2-ol bis(2,2,2-trifluoroacetate)]
5 | 269 | Cc1cccc2cccc(-c3ncc4c(NCC5(N(C)C)CCC5)nc(OC[C@@]56CCCN5C[C@H](F)C6)nc4c3F)c12 [Example 2, N-((1-(dimethylamino)cyclobutyl)methyl)-8-fluoro-2-(((2R,7aS)-2-fluorotetrahydro-1H-pyrrolizin-7a(5H)-yl)methoxy)-7-(8-methylnaphthalen-1-yl)pyrido[4,3-d]pyrimidin-4-amine bis(2,2,2-trifluoroacetate)]
6 | 239 | CN(C)C1(CNc2nc(OC[C@@]34CCCN3C[C@H](F)C4)nc3c(F)c(-c4cccc5cccc(C(F)(F)F)c45)ncc23)CCC1 [Example 3, N-((1-(dimethylamino)cyclobutyl)methyl)-8-fluoro-2-(((2R,7aS)-2-fluorotetrahydro-1H-pyrrolizin-7a(5H)-yl)methoxy)-7-(8-(trifluoromethyl)naphthalen-1-yl)pyrido[4,3-d]pyrimidin-4-amine]
7 | 958 | Oc1cc(-c2ncc3c(NCC4(N5CCOCC5)CCC4)nc(OC[C@@]45CCCN4C[C@H](F)C5)nc3c2F)c2ccccc2c1 [Example 4, 4-(8-fluoro-2-(((2R,7aS)-2-fluorotetrahydro-1H-pyrrolizin-7a(5H)-yl)methoxy)-4-(((1-morpholinocyclobutyl)methyl)amino)pyrido[4,3-d]pyrimidin-7-yl)naphthalen-2-ol]
8 | 2260 | CN1CCC[C@H]1COc1nc(NC2C3CNCC32)c2cnc(-c3cc(O)cc4ccccc34)c(F)c2n1 (stereo partly drawn) [Example 5, 4-(4-((3-azabicyclo[3.1.0]hexan-6-yl)amino)-8-fluoro-2-(((S)-1-methylpyrrolidin-2-yl)methoxy)pyrido[4,3-d]pyrimidin-7-yl)naphthalen-2-ol bis(2,2,2-trifluoroacetate)]
9 | 117 | CN(C)C1(CNc2nc(OC[C@@]34CCCN3C[C@H](F)C4)nc3c(F)c(-c4cc(O)cc5ccccc45)ncc23)CC1 [Example 6, 4-(4-(((1-(dimethylamino)cyclopropyl)methyl)amino)-8-fluoro-2-(((2R,7aS)-2-fluorotetrahydro-1H-pyrrolizin-7a(5H)-yl)methoxy)pyrido[4,3-d]pyrimidin-7-yl)naphthalen-2-bis(2,2,2-trifluoroacetate)]
10 | 2170 | CC(C)c1ccccc1-c1ncc2c(NCC3(N(C)C)CCC3)nc(OCC34CCCN3CCC4)nc2c1F [Example 9, N-((1-(dimethylamino)cyclobutyl)methyl)-8-fluoro-7-(2-isopropylphenyl)-2-((tetrahydro-1H-pyrrolizin-7a(5H)-yl)methoxy)pyrido[4,3-d]pyrimidin-4-amine bis(2,2,2-trifluoroacetate)]
11 | 3720 | CC(C)c1ccccc1-c1ncc2c(NCC3(N(C)C)CCC3)nc(OC[C@@]34CCCN3C[C@H](F)C4)nc2c1F [Example 10, N-((1-(dimethylamino)cyclobutyl)methyl)-8-fluoro-2-(((2R,7aS)-2-fluorotetrahydro-1H-pyrrolizin-7a(5H)-yl)methoxy)-7-(2-isopropylphenyl)pyrido[4,3-d]pyrimidin-4-amine bis(2,2,2-trifluoroacetate)]
12 | 98 | CN1CCC[C@H]1COc1nc(NCC2(N(C)C)CCC2)c2cnc(-c3cc(O)cc4ccccc34)c(F)c2n1 [Example 11, (S)-4-(4-(((1-(dimethylamino)cyclobutyl)methyl)amino)-8-fluoro-2-((1-methylpyrrolidin-2-yl)methoxy)pyrido[4,3-d]pyrimidin-7-yl)naphthalen-2-ol bis(2,2,2-trifluoroacetate)]
13 | 100 | Cc1cc2[nH]ncc2c(-c2ncc3c(NCC4(N(C)C)CCC4)nc(OC[C@@]45CCCN4C[C@H](F)C5)nc3c2F)c1Cl [Example 12, 7-(5-chloro-6-methyl-1H-indazol-4-yl)-N-((1-(dimethylamino)cyclobutyl)methyl)-8-fluoro-2-(((2R,7aS)-2-fluorotetrahydro-1H-pyrrolizin-7a(5H)-yl)methoxy)pyrido[4,3-d]pyrimidin-4-amine bis(2,2,2-trifluoroacetate)]
14 | 165 | Cc1c(Cl)cc2[nH]ncc2c1-c1ncc2c(NCC3(N(C)C)CCC3)nc(OC[C@@]34CCCN3C[C@H](F)C4)nc2c1F [Example 13, 7-(6-chloro-5-methyl-1H-indazol-4-yl)-N-((1-(dimethylamino)cyclobutyl)methyl)-8-fluoro-2-(((2R,7aS)-2-fluorotetrahydro-1H-pyrrolizin-7a(5H)-yl)methoxy)pyrido[4,3-d]pyrimidin-4-amine bis(2,2,2-trifluoroacetate)]
15 | 306 | CN(C)C1(CNc2nc(OCC34CCCN3CCC4)nc3c(F)c(-c4cccc5cccc(F)c45)ncc23)CCC1 [Example 14, N-((1-(dimethylamino)cyclobutyl)methyl)-8-fluoro-7-(8-fluoronaphthalen-1-yl)-2-((hexahydro-1H-pyrrolizin-7a-yl)methoxy)pyrido[4,3-d]pyrimidin-4-amine]
16 | 3150 | CC(C)(O)CNc1nc(OC[C@@]23CCCN2C[C@H](F)C3)nc2c(F)c(-c3cccc4cccc(Cl)c34)ncc12 [Example 15, 1-((7-(8-chloronaphthalen-1-yl)-8-fluoro-2-(((2R,7aS)-2-fluorotetrahydro-1H-pyrrolizin-7a(5H)-yl)methoxy)pyrido[4,3-d]pyrimidin-4-yl)amino)-2-methylpropan-2-ol]
17 | 146 | CN(C)C1(CNc2nc(OCC34CCCN3CCC4)nc3c(F)c(-c4cccc(Cl)c4C4CC4)ncc23)CCC1 [Example 16, 7-(3-chloro-2-cyclopropylphenyl)-N-((1-(dimethylamino)cyclobutyl)methyl)-8-fluoro-2-((tetrahydro-1H-pyrrolizin-7a(5H)-yl)methoxy)pyrido[4,3-d]pyrimidin-4-amine]
18 | 245 | C[C@H]1CNC[C@@H]1Nc1nc(OCC23CCCN2CCC3)nc2c(F)c(-c3cc(O)cc4ccccc34)ncc12 [Example 19, 4-(8-fluoro-4-(((3R,4S)-4-methylpyrrolidin-3-yl)amino)-2-((tetrahydro-1H-pyrrolizin-7a(5H)-yl)methoxy)pyrido[4,3-d]pyrimidin-7-yl)naphthalen-2-ol]
19 | 1320 | CN(C)C1(CNc2nc(OC[C@@]34CCCN3C[C@H](F)C4)nc3c(F)c(-c4cccc5cccc(F)c45)ncc23)CCC1 [Example 22, N-((1-(dimethylamino)cyclobutyl)methyl)-8-fluoro-7-(8-fluoronaphthalen-1-yl)-2-(((2R,7aS)-2-fluorotetrahydro-1H-pyrrolizin-7a(5H)-yl)methoxy)pyrido[4,3-d]pyrimidin-4-amine]
20 | 583 | CN(C)C1(CNc2nc(OC[C@@]34CCCN3C[C@H](F)C4)nc3c(F)c(-c4cccc5cccc(Cl)c45)ncc23)CCC1 [Example 23, 7-(8-chloronaphthalen-1-yl)-N-((1-(dimethylamino)cyclobutyl)methyl)-8-fluoro-2-(((2R,7aS)-2-fluorotetrahydro-1H-pyrrolizin-7a(5H)-yl)methoxy)pyrido[4,3-d]pyrimidin-4-amine]
21 | 1880 | CC#Cc1cccc2cccc(-c3ncc4c(NCC5(N(C)C)CCC5)nc(OC[C@@]56CCCN5C[C@H](F)C6)nc4c3F)c12 [Example 27, N-((1-(dimethylamino)cyclobutyl)methyl)-8-fluoro-2-(((2R,7aS)-2-fluorotetrahydro-1H-pyrrolizin-7a(5H)-yl)methoxy)-7-(8-(prop-1-yn-1-yl)naphthalen-1-yl)pyrido[4,3-d]pyrimidin-4-amine]
22 | 609 | CN(CC1(N(C)C)CCC1)c1nc(OC[C@@]23CCCN2C[C@H](F)C3)nc2c(F)c(-c3cc(O)cc4ccccc34)ncc12 [Example 28]
23 | 1580 | CN(C)C1(CNc2nc(OC[C@@]34CCCN3C[C@H](F)C4)nc3c(F)c(-c4cc(O)cc5ccccc45)ncc23)CCCCC1 [Example 30]
